The source of these data is ChEMBL document CHEMBL1151369, “Antitumor agents. 39. Bruceantinoside-A and -B, novel antileukemic quassinoid glucosides from Brucea antidysenterica” (1981).

The structures appear in SMILES notation.

Holding throughout (type): functional
For assay [1], the system named is P388. As to the kind of experiment: In vivo antileukemic activity against mouse P388 cells at 10 mg/kg relative to control.
In assay [2] the test system is P388. Description: In vivo antileukemic activity against mouse P388 cells at 0.5 mg/kg relative to control.
The subject of assay [3] is P388. Description: In vivo antileukemic activity against mouse P388 cells at 1 mg/kg relative to control.
For assay [4], the system named is P388. As to the kind of experiment: In vivo antileukemic activity against mouse P388 cells at 6 mg/kg relative to control.
The subject of assay [5] is P388. As to the kind of experiment: In vivo antileukemic activity against mouse P388 cells at 20 mg/kg relative to control.

A word on the T/C: it is the ratio of treated to control.

Regarding `COC(=O)[C@]12OC[C@@]34[C@H](C[C@H]5[C@H](C)C(=O)C(O[C@@H]6O[C@H](CO)[C@@H](O)[C@H](O)[C@H]6O)=C[C@]5(C)[C@H]3[C@@H](O)[C@@H]1O)OC(=O)[C@H](OC(=O)/C=C(\C)C(C)C)[C@@H]24` [BRUCEANTINOSIDE A], the T/C with P388 [1] is listed as 152%; with P388 [2], 110%; in the assay with P388 [3], 106%; in the assay on P388 [4], 118%; with P388 [5], 172%.
Consider `COC(=O)[C@]12OC[C@@]34[C@H](C[C@H]5C(C)=C(O[C@@H]6O[C@H](CO)[C@@H](O)[C@H](O)[C@H]6O)C(=O)C[C@]5(C)[C@H]3[C@@H](O)[C@@H]1O)OC(=O)[C@H](OC(=O)/C=C(\C)C(C)C)[C@@H]24` [BRUCEANTINOSIDE B], for which the T/C is 132% in the assay on P388 [1] and 160% with P388 [5].
